From ChEMBL document CHEMBL1158113, “Terpenoids and a diarylheptanoid from Zingiber ottensii” (J Nat Prod, 2006)

test system: Radical scavenging activity; assay: Antioxidant activity assessed as DPPH free radical scavenging activity after 30 mins by multilabel counter; type: functional

Q: How did the IC50 turn out when `COc1cc(CC[C@@H](O)C[C@@H](O)CCc2ccc(O)c(O)c2)ccc1O` (relative stereo) was run?
A: Its IC50 is 24 µM.

Q: Which IC50 does the source give for `COc1cc(CC[C@@H](O)C[C@@H](O)CCc2ccc(O)c(OC)c2)ccc1O` here?
A: The IC50 was 20.6 µM.

Q: For `Cc1c(C)c2c(c(C)c1O)CC[C@@](C)(CCC[C@H](C)CCC[C@H](C)CCCC(C)C)O2` [ALPHA-TOCOPHEROL], which IC50 is on record?
A: The IC50 was 37.5 µM.

Q: For `O=C1O[C@H]([C@@H](O)CO)C(O)=C1O` [ASCORBIC ACID], which IC50 is on record?
A: Its IC50 is 35.6 µM.

Q: How did the IC50 turn out when `COc1cc(CC[C@H](O)C[C@@H](O)CCc2ccc(O)c(OC)c2)ccc1O` was run?
A: The IC50 was 20.1 µM.

Q: `COc1cc(CC[C@H](O)C[C@@H](O)CCc2cc(OC)c(O)c(OC)c2)ccc1O` was tested. Which IC50 did it give?
A: The IC50 was 16.4 µM.
